The compounds below were run against hsDHODH (Homo sapiens (Human), UniProt Q02127) (assay: Activity test at enzyme level: DHODH inhibition, DCIP absorbance at 600 nm). Conditions: pharmaceutically acceptable esters (prodrugs of A and B series), hsDHODH enzyme test; read-out: IC50.
Chain of hsDHODH (Q02127 whole entry): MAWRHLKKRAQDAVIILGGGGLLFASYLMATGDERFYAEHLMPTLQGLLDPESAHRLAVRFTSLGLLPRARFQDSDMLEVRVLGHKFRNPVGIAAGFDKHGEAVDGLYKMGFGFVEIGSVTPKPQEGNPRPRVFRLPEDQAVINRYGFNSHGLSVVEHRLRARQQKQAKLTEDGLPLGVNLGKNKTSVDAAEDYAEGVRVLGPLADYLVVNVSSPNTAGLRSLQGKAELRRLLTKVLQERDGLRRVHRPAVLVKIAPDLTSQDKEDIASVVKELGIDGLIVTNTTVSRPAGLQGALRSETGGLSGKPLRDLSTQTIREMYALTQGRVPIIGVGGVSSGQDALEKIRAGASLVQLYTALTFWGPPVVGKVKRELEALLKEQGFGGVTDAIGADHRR
Assay type: biochemical
Method: Culture and Purification of hsDHODH Protein
The correctly sequenced recombinant plasmid pET-19b-DHODH was transformed into competent E. coli BL21 (DE3), and cultured on LB plate containing ampicillin. Colonies were randomly selected, inoculated into LB medium containing […], and incubate overnight at 37° C., 230 rpm. The cells were inoculated at a ratio of 1:200 in 500 mL of LB medium containing […] and expanded at 37° C., 230 rpm. When the OD value of the cells reached 0.8-1, IPTG was added into the medium to a final concentration of IPDG of 0.5 mM, and expression was induced overnight at 25° C. The induced cells were collected by centrifugation at […], 4° C., washed with deionized water, and centrifuged again to collect the bacterial pellet, which was stored at −80° C.
Purification of protein: cells were re-suspended in lysis liquid containing 50 mM HEPES (pH 8.0), 0.15 M NaCl, 10 mM imidazole, 10% glycerol, 0.1% Triton X-100, and a small amount of soy protease inhibitor added. After re-suspended and mixed homogeneously, cells were ultrasonically disrupted. The disruption solution was centrifuged for 30 min, and the supernatant and precipitate were taken for protein electrophoresis to determine the form of protein. The supernatant was loaded onto a Ni-NTA column, and the pass-through liquid was collected, and then the resin was washed for 3-4 times with a lysis liquid containing 20 mM imidazole, and finally eluted with a lysis liquid containing 300 mM imidazole. After elution, protein solution was collected. 10 μL of the above protein sample was taken for SDS-PAGE electrophoresis to determine the content of target protein. Finally, the eluted protein solution is dialyzed in the dialysis liquid to remove imidazole, thereby obtaining a pure protein.
Method for Testing Activities of Compounds at Enzyme Level
Principles of activity test at enzyme level: firstly, dihydroorotate (DHO) is oxidatively dehydrogenated by DHODH to form orotic acid (Orotate, OA), accompanied by reduction of Flavin mononucleotide (FMN) into reduced flavin mononucleotide (FMNH2) by accepting 2H+ and 2e−, then coenzyme Q (CoQ) as hydrogen acceptor accepting electron and proton from FMNH2 is reduced into reduced coenzyme Q (CoQH2), reduced coenzyme Q transfers electrons to a chromogenic substrate, […] (DCIP), and finally DCIP was reduced. […] The degree to which the substrate DHO is oxidized can be judged based on the degree of decrease in absorbance. The degree of oxidation of the substrate DHO per unit time is the initial rate of the enzymatic reaction. Upon addition of a inhibitor, the initial rate of the enzymatic reaction is reduced.
Substrate DHO was added to start the reaction with a DHO final concentration of 500 μM. The absorbance was read at 600 nm using a BioTek microplate reader and read every 30 s for 6 min. […] For calculating IC50 of a compound, Origin 8.0 was used to test the inhibition rate at least 8 concentrations.
`CCOC(=O)c1ccccc1/C=N/Nc1nc(-c2ccccc2Cl)cs1` [Compound A1, (E)-4-(2-chlorophenyl)-2-(2-ethoxyformylbenzylidenehydrazino)thiazole] was tested, and the IC50 was 2.34 ± 0.0468 µM. Work on `CCCOC(=O)c1ccccc1/C=N/Nc1nc(-c2ccccc2Cl)cs1` [Compound A2, (E)-4-(2-chlorophenyl)-2-(2-propoxyformylbenzylidenehydrazino)thiazole] yielded an IC50 of 1.4 ± 0.0661 µM. With `CC(C)OC(=O)c1ccccc1/C=N/Nc1nc(-c2ccccc2Cl)cs1` [Compound A3, (E)-4-(2-chlorophenyl)-2-(2-isopropoxyformylbenzylidenehydrazino)thiazole] the IC50 was 1.86 ± 0.0214 µM. In the case of `CCCCOC(=O)c1ccccc1/C=N/Nc1nc(-c2ccccc2Cl)cs1` [Compound A4, (E)-4-(2-chlorophenyl)-2-(2-butoxyformylbenzylidenehydrazino)thiazole], the IC50 is reported as 3.53 ± 0.148 µM. For `CCC(C)OC(=O)c1ccccc1/C=N/Nc1nc(-c2ccccc2Cl)cs1` (stereo not drawn) [Compound A5, (E)-4-(2-chlorophenyl)-2-(2-(2-butoxy)formylbenzylidenehydrazino)thiazole], the IC50 was 4.651 ± 0.0264 µM. `CCCCCOC(=O)c1ccccc1/C=N/Nc1nc(-c2ccccc2Cl)cs1` [Compound A6, (E)-4-(2-chlorophenyl)-2-(2-pentyloxyformylbenzylidenehydrazino)thiazole] gave an IC50 greater than 50 µM. For `CCCCCCOC(=O)c1ccccc1/C=N/Nc1nc(-c2ccccc2Cl)cs1` [Compound A7, (E)-4-(2-chlorophenyl)-2-(2-hexyloxyformylbenzylidenehydrazino)thiazole], the IC50 was greater than 50 µM. Work on `O=C(OC1CCCCC1)c1ccccc1/C=N/Nc1nc(-c2ccccc2Cl)cs1` [Compound A8, (E)-4-(2-chlorophenyl)-2-(2-cyclohexyloxyformylbenzylidenehydrazino)thiazole] yielded an IC50 greater than 50 µM. `CC(C)(C)C(=O)OCOC(=O)c1ccccc1/C=N/Nc1nc(-c2ccccc2Cl)cs1` [Compound A9, (Pivaloyloxy)methyl (E)-2-((2-(4-(2-chlorophenyl)thiazol-2-yl)hydrazono)methyl)benzoate] showed an IC50 greater than 50 µM. `CC(C)OC(=O)OCOC(=O)c1ccccc1/C=N/Nc1nc(-c2ccccc2Cl)cs1` [Compound A10, ((isopropoxycarbonyl)oxy)methyl (E)-2-((2-(4-(2-chlorophenyl)thiazol-2-yl)hydrazono)methyl)benzoate] was tested, and the IC50 was greater than 50 µM. Compound `O=C(OCc1ccccc1)c1ccccc1/C=N/Nc1nc(-c2ccccc2Cl)cs1` [Compound A11, (E)-4-(2-chlorophenyl)-2-(2-benzyloxyformylbenzylidenehydrazino)thiazole] has an IC50 greater than 50 µM. With `CN(C)C(=O)c1ccccc1/C=N/Nc1nc(-c2ccccc2Cl)cs1` [Compound A13, (E)-4-(2-chlorophenyl)-2-((N,N-Dimethyl)formylbenzylidenehydrazino)thiazole] the IC50 was greater than 50 µM. `CCOC(=O)c1ccccc1/C=N/N(C)c1nc(-c2ccccc2Cl)cs1` [Compound B1, (E)-4-(2-chlorophenyl)-2-[1-methyl-2-(2-ethoxyformylbenzylidene)hydrazino]thiazole] was tested, and the IC50 was 2.79 ± 0.0465 µM. With `CCCOC(=O)c1ccccc1/C=N/N(C)c1nc(-c2ccccc2Cl)cs1` [Compound B2, (E)-4-(2-chlorophenyl)-2-[1-methyl-2-(2-propoxyformylbenzylidene)hydrazino]thiazole] the IC50 was 1.96 ± 0.111 µM. For `CCCCOC(=O)c1ccccc1/C=N/N(C)c1nc(-c2ccccc2Cl)cs1` [Compound B4, (E)-4-(2-chlorophenyl)-2-[1-methyl-2-(2-butoxyformylbenzylidene)hydrazino]thiazole], the IC50 was greater than 50 µM. `CCC(C)OC(=O)c1ccccc1/C=N/N(C)c1nc(-c2ccccc2Cl)cs1` (stereo not drawn) [Compound B5, (E)-4-(2-chlorophenyl)-2-[1-methyl-2-(2-(2-butoxy)formylbenzylidene)hydrazino]thiazole] gave an IC50 greater than 50 µM. `CCCCCOC(=O)c1ccccc1/C=N/N(C)c1nc(-c2ccccc2Cl)cs1` [Compound B6, (E)-4-(2-chlorophenyl)-2-[1-methyl-2-(2-pentyloxyformylbenzylidene)hydrazino]thiazole] gave an IC50 greater than 50 µM. For `CCCCCCOC(=O)c1ccccc1/C=N/N(C)c1nc(-c2ccccc2Cl)cs1` [Compound B7, (E)-4-(2-chlorophenyl)-2-[1-methyl-2-(2-hexyloxyformylbenzylidene)hydrazino]thiazole], the IC50 was greater than 50 µM.

Same assay, conditions: purified DHODH 10 nM, DHO 500 μM, CoQ 100 μM, DCIP 120 μM; read-out: IC50 (μM) hsDHODH
In the case of `CCCN(/N=C/c1ccccc1C(=O)O)c1nc(-c2ccccc2Cl)cs1` [Compound 3, (E)-4-(2-chlorophenyl)-2-[1-propyl-2-(2-carboxybenzylidene)hydrazino]thiazole], the IC50 is reported as 0.0086 ± 0.0001 µM. `CCCC(C)N(/N=C/c1ccccc1C(=O)O)c1nc(-c2ccccc2Cl)cs1` (stereo not drawn) [Compound 6, (E)-4-(2-chlorophenyl)-2-[1-(2-amyl)-2-(2-carboxybenzylidene)hydrazino]thiazole] gave an IC50 of 0.0191 ± 0.0006 µM. With `CN(/N=C/c1ccc(C(F)(F)F)cc1C(=O)O)c1nc(-c2ccccc2Cl)cs1` [Compound 8, (E)-4-(2-chlorophenyl)-2-[1-methyl-2-(4-trifluoromethyl-2-carboxybenzylidene)hydrazino]thiazole] the IC50 was 0.0868 ± 0.0009 µM. In the case of `Cc1ccc(/C=N/N(C)c2nc(-c3ccccc3Cl)cs2)c(C(=O)O)c1` [Compound 9, (E)-4-(2-chlorophenyl)-2-[1-methyl-2-(4-methyl-2-carboxybenzylidene)hydrazino]thiazole], the IC50 is reported as 0.0084 ± 0.0001 µM. `CN(/N=C/c1ccc(F)cc1C(=O)O)c1nc(-c2ccccc2Cl)cs1` [Compound 10, (E)-4-(2-chlorophenyl)-2-[1-methyl-2-(2-carboxyl-4-fluorobenzylidene)hydrazino]thiazole] was tested, and the IC50 was 0.0018 ± 0.0001 µM. `Cc1ccc(/C=N/N(C)c2nc(-c3ccccc3)c(C)s2)c(C(=O)O)c1` [Compound 11, (E)-5-methyl-4-phenyl-2-[1-methyl-2-(4-methyl-2-carboxybenzylidene)hydrazino]thiazole] gave an IC50 of 0.0136 ± 0.0005 µM. For `Cc1sc(N(C)/N=C/c2ccccc2C(=O)O)nc1-c1ccccc1` [Compound 12, (E)-5-methyl-4-phenyl-2-[1-methyl-2-(2-carboxybenzylidene)hydrazino]thiazole], the IC50 was 0.0088 ± 0.0001 µM. With `CCc1sc(N/N=C/c2ccccc2C(=O)O)nc1-c1ccccc1Cl` [Compound 14, (E)-5-ethyl-4-(2-chlorophenyl)-2-(2-carboxylbenzylidenehydrazino)thiazole] the IC50 was 0.356 ± 0.0064 µM. Compound `Cc1sc(N/N=C/c2ccccc2C(=O)O)nc1-c1ccccc1Cl` [Compound 15, (E)-5-methyl-4-(2-chlorophenyl)-2-(2-carboxylbenzylidenehydrazino)thiazole] has an IC50 of 0.0662 ± 0.0002 µM. In the case of `Cc1sc(N/N=C/c2ccccc2C(=O)O)nc1-c1ccccc1` [Compound 17, (E)-5-methyl-4-phenyl-2-(2-carboxylbenzylidenehydrazino)thiazole], the IC50 is reported as 0.0811 ± 0.0001 µM. `CN(/N=C/c1ccccc1C(=O)O)c1nc(-c2cc(Cl)ccc2Cl)cs1` [Compound 19, (E)-4-(2,5-dichlorophenyl)-2-[1-methyl-2-(2-carboxybenzylidene)hydrazino]thiazole] showed an IC50 of 0.0282 µM. Work on `CN(/N=C/c1ccccc1C(=O)O)c1nc(-c2ccccc2)cs1` [Compound 20, (E)-4-phenyl-2-[1-methyl-2-(2-carboxybenzylidene)hydrazino]thiazole] yielded an IC50 of 0.0244 ± 0.0005 µM. For `CN(/N=C/c1ccccc1C(=O)O)c1nc(-c2cccc(Cl)c2)cs1` [Compound 21, (E)-4-(3-chlorophenyl)-2-[1-methyl-2-(2-carboxybenzylidene)hydrazino]thiazole], the IC50 was 0.0106 µM. In the case of `CCCC(C)N(/N=C/c1ccccc1C(=O)O)c1nc(-c2ccccc2Cl)c(C)s1` (stereo not drawn) [Compound 22, (E)-5-methyl-4-(2-chlorophenyl)-2-[1-(2-amyl)-2-(2-carboxybenzylidene)hydrazino]thiazole], the IC50 is reported as 0.0154 ± 0.0002 µM. In the case of `CN(/N=C/c1cc(F)c(F)cc1C(=O)O)c1nc(-c2ccccc2Cl)cs1` [Compound 23], the IC50 is reported as 0.0044 µM. `CN(/N=C/c1cc(O)c(F)cc1C(=O)O)c1nc(-c2ccccc2Cl)cs1` [Compound 24] gave an IC50 of 0.0214 ± 0.0005 µM. With `CN(/N=C/c1cc(N)c(F)cc1C(=O)O)c1nc(-c2ccccc2Cl)cs1` [Compound 25] the IC50 was 0.0316 ± 0.0001 µM. `O=C(O)c1c(F)cccc1/C=N/Nc1nc(-c2ccccc2Cl)cs1` [Compound 58, (E)-2-((2-(4-(2-chlorophenyl)thiazol-2-yl)hydrazono)methyl)-6-fluorobenzoic acid] showed an IC50 of 0.234 ± 0.0068 µM.
